The target in this assay is T1, Human complement C1s enzyme (Homo sapiens, UniProt P09871).
T1 construct: purified from human serum, Complement Technology, Inc; purchased Complement Technology, Inc; host or cells: human serum
T1 sequence (P09871 438-688 limits assumed): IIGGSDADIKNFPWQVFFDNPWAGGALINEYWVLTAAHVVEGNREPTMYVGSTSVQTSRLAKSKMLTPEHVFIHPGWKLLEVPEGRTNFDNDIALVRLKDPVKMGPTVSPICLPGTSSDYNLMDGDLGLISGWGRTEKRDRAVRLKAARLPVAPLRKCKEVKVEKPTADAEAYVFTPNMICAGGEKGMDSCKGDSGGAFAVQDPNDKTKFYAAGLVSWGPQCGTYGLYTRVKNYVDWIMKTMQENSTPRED
T1 sequence (P09871 16-437 partner limits assumed): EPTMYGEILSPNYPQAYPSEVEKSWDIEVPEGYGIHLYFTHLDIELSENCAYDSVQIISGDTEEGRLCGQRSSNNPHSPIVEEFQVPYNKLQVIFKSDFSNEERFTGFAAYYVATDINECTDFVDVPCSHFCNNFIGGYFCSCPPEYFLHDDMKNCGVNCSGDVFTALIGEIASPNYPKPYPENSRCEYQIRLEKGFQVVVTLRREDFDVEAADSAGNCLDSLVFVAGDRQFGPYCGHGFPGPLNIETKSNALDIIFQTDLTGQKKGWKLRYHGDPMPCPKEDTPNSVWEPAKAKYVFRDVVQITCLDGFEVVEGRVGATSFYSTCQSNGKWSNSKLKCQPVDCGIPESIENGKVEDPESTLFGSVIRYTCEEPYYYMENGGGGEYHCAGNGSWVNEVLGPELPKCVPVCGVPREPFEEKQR
In words: Human C1s Enzyme Assay. Particulars: human C1s 1.16 nM, 5 min preincubation, substrate Z-L-Lys-SBzl 100 μM, A405; read-out: C1s Protease Activity. The format is biochemical. As for the experimental part:
The assay of Example 3 was used to determine the IC50's of the compounds. Other standard complement assays are also available.
Example 3. Human C1s Enzyme Assay
Human complement C1s enzyme (purified from human serum, Complement Technology, Inc.) at 1.16 nM final concentration was incubated with test compound at various concentrations for 5 min at room temperature in 50 mM Tris, 1 M NaCl, pH 7.5. A synthetic substrate Z-L-Lys-SBzl and DTNB (Ellman's reagent) were added to final concentrations of 100 μM each. Absorbance at 405 nm (A405) was recorded at 30 second intervals for 30 min using a microplate spectrophotometer. IC50 values were calculated by nonlinear regression of complement C1s reaction rates as a function of test compound concentration.

On to `C[C@H](O)[C@H](O)[C@@H](O)[C@@H](O)CNCC(=O)N1[C@H]2C[C@@]2(C)C[C@H]1C(=O)NCc1nc(C(=N)N)cs1` [Compound 78, (1S,3S,5S)-N-((4-carbamimidoylthiazol-2-yl)methyl)-5-methyl-2-(((2S,3S,4S,5S)-2,3,4,5-tetrahydroxyhexyl)glycyl)-2-azabicyclo[3.1.0]hexane-3-carboxamide], for which the IC50 was above 1000 nM.
`C[C@@]12C[C@@H]1N(C(=O)CNC(=O)c1ccc(Oc3ccccc3)cc1)[C@H](C(=O)NCCc1cc(C(=N)N)cs1)C2` [Compound 52, (1S,3S,5S)-N-(2-(4-carbamimidoylthiophen-2-yl)ethyl)-5-methyl-2-((4-phenoxy-benzoyl)glycyl)-2-azabicyclo[3.1.0]hexane-3-carboxamide]: the IC50 was below 100 nM.
As for `C[C@@]12C[C@@H]1N(C(=O)CNC(=O)c1ccc(Oc3ccccc3)cc1)[C@H](C(=O)Nc1ccc3c(C(=N)N)csc3c1)C2` [Compound 237, (1S,3S,5S)-N-(3-carbamimidoylbenzo[b]thiophen-6-yl)-5-methyl-2-((4-phenoxybenzoyl)glycyl)-2-azabicyclo[3.1.0]hexane-3-carboxamide], the IC50 lay within 100 to 1000 nM.
For `N=C(N)c1csc([C@@H](NC(=O)[C@@H]2C[C@@H](OC(F)F)CN2C(=O)CNC(=O)c2ccc(Oc3ccccc3)cc2)C(N)=O)c1` (relative stereo) [Compound 214, (2S,4R)-N-((S*)-2-amino-1-(4-carbamimidoylthiophen-2-yl)-2-oxoethyl)-4-(difluoromethoxy)-1-((4-phenoxybenzoyl)glycyl)pyrrolidine-2-carboxamide], the IC50 is above 1000 nM.
The result for `N=C(N)c1csc(CNC(=O)[C@@H]2C[C@H](C(F)F)CN2C(=O)CNC(=O)c2ccc(Oc3ccccc3)cc2)c1` [Compound 51, (2S,4S)-N-((4-carbamimidoylthiophen-2-yl)methyl)-4-(difluoromethyl)-1-((4-phenoxybenzoyl)glycyl)pyrrolidine-2-carboxamide] reads below 100 nM; that for `C[C@@]12C[C@@H]1N(C(=O)CNC(=O)c1ccc(Oc3ccccc3)cc1)[C@H](C(=O)NCc1ccc(N)nc1)C2` [Compound 5], 100 to 1000 nM.
With `N=C(N)c1csc(CNC(=O)[C@@H]2C[C@H](C3CCCCC3)CN2C(=O)CNC(=O)c2ccc(Oc3ccccc3)cc2)c1` [Compound 73, (2S,4R)-N-((4-carbamimidoylthiophen-2-yl)methyl)-4-cyclohexyl-1-((4-phenoxy-benzoyl)glycyl)pyrrolidine-2-carboxamide] the figure was below 100 nM; with `C[C@@]12C[C@@H]1N(C(=O)CNC1(c3ccc(Oc4ccccc4)cc3)COC1)[C@H](C(=O)NCc1cc(C(=N)N)cs1)C2` [Compound 249, (1S,3S,5S)-N-[(4-carbamimidoylthiophen-2-yl)methyl]-5-methyl-2-(2-{[3-(4-phenoxyphenyl)oxetan-3-yl]amino}acetyl)-2-azabicyclo[3.1.0]hexane-3-carboxamide], below 100 nM.
With `CC(=O)O/N=C(\N)c1csc(CNC(=O)[C@@H]2C[C@]3(C)C[C@@H]3N2C(=O)CN(C[C@H](O)[C@H](O)[C@@H](O)[C@H](C)O)C(=O)OC(C)(C)C)c1` [Compound 25, tert-butyl (2-((1S,3S,5S)-3-(((4-(N-acetoxycarbamimidoyl)thiophen-2-yl)methyl)-carbamoyl)-5-methyl-2-azabicyclo[3.1.0]hexan-2-yl)-2-oxoethyl)((2S,3S,4S,5S)-2,3,4,5-tetrahydroxyhexyl)carbamate] the figure was above 1000 nM; with `N=C(N)c1csc(CNC(=O)[C@@H]2CC3(CCCC3)CN2C(=O)CNC(=O)CCCOc2ccccc2)c1` [Compound 82, (S)-N-((4-carbamimidoylthiophen-2-yl)methyl)-2-((4-phenoxybutanoyl)glycyl)-2-azaspiro[4.4]nonane-3-carboxamide], 100 to 1000 nM.

Values taken from patent US20250171423A1, “PHARMACEUTICAL COMPOUNDS FOR THE TREATMENT OF COMPLEMENT MEDIATED DISORDERS” (Achillion Pharmaceuticals, Inc., priority 2020, published 2025).
